The assay concerns human insulin-like growth factor-1 (h-IGF-1) production in Hs68 cells. Briefly: Enhancement of h-IGF-1 production in Hs68 cells (ELISA). In kind it is cell-based. To be noted: Example 3-(2): 10 to 20 µM. How it is done: (1) Human newborn foreskin […] Hs68 cells (ATCC CRL-1635) were cultured in a D-MEM medium (Bio Whittaker) containing 10% fetal calf serum (FBS; Gibco BRL) in the presence of 5% CO2 at 37°C to saturation in a culture vessel. Then, the cells were suspended in the medium at a concentration of 3 x 10^5/ml using a trypsin-EDTA solution (Bio Whittaker). 200 µl of the suspension was dispensed into each well of a 96-well microtiter plate. When the cells were almost saturated in the culture vessel after culturing for 5 days, the medium was discarded and a medium containing 4HCP at a concentration of 40, 100 or 200 µM was added thereto. The culture supernatant was recovered at intervals of 24 hours for up to 96 hours. The effect of 4HCP on enhancement of human insulin-like growth factor-1 (h-IGF-1) production in Hs68 cells was determined using ELISA-Kit for h-IGF-1 (Diagnostic System Labo).
(2) Hs68 cells were cultured in a D-MEM medium containing 10% fetal calf serum in the presence of 5% CO2 at 37°C to saturation in a culture vessel. Then, the cells were suspended in the medium at a concentration of 3 x 10^5/ml using a trypsin-EDTA solution. 200 µl of the suspension was dispensed into each well of a 96-well microtiter plate. When the cells were almost saturated in the culture vessel after culturing for 5 to 7 days, the medium was discarded and the medium containing cyclopentenone or GM at a concentration of 0, 2.5, 5, 10 or 20 µM was added thereto. The culture supernatant was recovered at 1, 3, 6, 12, 24 or 48 hours. The effect of cyclopentenone or GM on the production (enhancement of expression) of h-IGF-1 in Hs68 cells was determined using ELISA-Kit for h-IGF-1. […] The amount of h-IGF-1 produced 6 hours after the addition was about twice the amount for the control with no addition. […] (3) Hs68 cells were cultured in a D-MEM medium containing 10% fetal calf serum in the presence of 5% CO2 at 37°C to saturation in a culture vessel. Then, the cells were suspended in the medium at a concentration of 3 x 10^5/ml using a trypsin-EDTA solution. 200 µl of the suspension was dispensed into each well of a 96-well microtiter plate. When the cells were almost saturated in the culture vessel after culturing for 5 to 7 days, the medium was discarded and the medium containing 4HCP, a compound of formula (XVIII) (4HCP-GSH) or glutathione (GSH) at a concentration of 0, 25, 50, 100 or 200 µM was added thereto. The culture supernatant was recovered at 1, 3, 6, 12, 24 or 48 hours. The effect on the production (enhancement of expression) of h-IGF-1 in Hs68 cells was determined using ELISA-Kit for h-IGF-1. As a result, when 4HCP was added at a concentration of 25 to 200 µM, h-IGF production in Hs68 cells became maximal at 1 hour and decreased thereafter as the time went by. […] Significant enhancement of h-IGF-1 production was observed when cultured for 10 to 30 minutes. […]

In the case of `O=C1C=CC(O)C1O` (stereo not shown) [cyclopentenone, 4,5-dihydroxy-2-cyclopenten-1-one], the “production of h-IGF-1 in Hs68 cells (result in words)” value is recorded as “h-IGF-1 production was observed from 1-hour to 6 hours after the addition”.

The values are drawn from patent publication EP1170007A1, “REMEDIES” (Takara Shuzo Co, Ltd., priority 1999, dated 2000).
